According to patent US6492124B1, “Trance activated signal transduction pathways in osteoclasts” (The Rockefeller University, priority 1999, dated 2002):

What was measured:
[1] = tested on: PKB; test: PKB activation in osteoclasts (phospho-PKB Western blot); format: cell-based, mouse
Experimental: FIG. 1. […] (A) Mature bone marrow-derived osteoclasts were stimulated for the indicated times with recombinant hCD8-TRANCE (TRANCE; 1 μg/ml). Levels of phosphorylated forms of p44/p42 ERK (p44 ERK^P and p42 ERK^P), IκBα (IκB-α^P) and PKB (PKB^P) in whole cell extracts were determined using phospho-peptide-specific antibodies as indicated in the figure. […] (B) as in (A) except the use of mature bone marrow-derived dendritic cells instead of osteoclasts.
FIG. 2. […] (A) Osteoclasts were serum starved and then pretreated for 90 min with LY294002 (10 μM), Herbimycin A (Herb. A; 10 μM), and PP1 (10 μM) inhibitors which are specific for PI3-kinase, PTKs, and Src-family kinases, respectively, were stimulated for indicated times with TRANCE (1 μg/ml). Levels of phosphorylated p44/p42 ERK, PKB, and IκB-α were determined as described in FIG. 1. Cells pretreated with vehicle (DMSO) were used as a negative control. (B) as in (A) except the use of mature bone marrow-derived dendritic cells.
Primary cells and cell lines. […] In brief, bone marrow cells from tibiae and femur of 4-6 week old mice (C57BL/6, Jackson Laboratories) were cultured overnight in media (α-MEM, 10% FCS) in the presence of CSF-1 (5 ng/ml). […] For experiments described in this study, only adherent cells were used after extensive washing. […] After allowing them adhere for 2 hours to a tissue culture dish, contaminating floater cells were washed away and mature dendritic cells were obtained by overnight culture.
Cell stimulation, cell transfection and in vitro assays. In vitro differentiated mature dendritic cells, macrophages and osteoclasts were washed to remove exogenous growth factors, cultured in media with low serum (0.5% FCS, 6 hours), then stimulated by adding various cytokines in the presence or absence of inhibitors for various times as indicated. After stimulation, the cells were washed in ice-cold PBS, and subjected to Western blot analysis or immunoprecipitation as described below.
All cells were harvested and lysed in extraction buffer (20 mM HEPES NaOH (pH 7.4), 150 mM NaCl, 1% Triton X-100, 10% glycerol, 10 mM EDTA, 1 mM Na3VO4, 1 mM phenylmethylsulfonylfluoride, 1 μg/ml leupeptin, and 0.1 U of aprotinin per ml) and cleared by centrifugation to obtain whole cell extracts. Protein assays were performed to ensure equal amounts of lysates were used in each sample.

[2] = biological target: T1, TRANCE-R signaling complex (Mus musculus, UniProt O35305); test: TRANCE-R immunoprecipitation from dendritic cells: co-precipitated TRAF6/c-Src and SAM68 kinase assay; format: cell-based
T1 construct: the endogenous TRANCE-R was immunoprecipitated from the extracts (2 mg of total protein); endogenous in cells; host or cells: mature bone marrow-derived dendritic cells of C57BL/6 mice
Experimental: FIG. 5. Ligand dependant recruitment of endogenous TRAF6 and c-Src proteins to the TRANCE-R signaling complex. (A) Dendritic cells were stimulated with TRANCE (1 μg/ml) for the indicated times, lysed, and c-Src was immunoprecipitated from the extracts (400 μg total protein), using an anti-c-Src-specific monoclonal antibody (327). PTK activity of the c-Src immunoprecipitates was measured by in vitro kinase assays using SAM68 as a PTK substrate. The degree of SAM68 phosphorylation (SAM68^P) was determined by Western blot analysis using a phospho-tyrosine specific antibody (4G10) followed by densitometry. (B) Dendritic cells (3×10^7) were treated with TRANCE (1 μg/ml) for 5 minutes or left untreated (0 minutes). […] The degree of SAM68 phosphorylation (SAM68^P) was determined as in (A). The presence of endogenous TRAF6 or c-Src in the remaining α-TRANCE-R immunoprecipitates (IP) were analyzed by Western blotting using TRAF6 (H-274) and c-Src specific antibodies (N16), respectively, as indicated. […]
For the in vitro kinase-assays in FIGS. 3A, 4D, and 5B the beads were washed twice with extraction buffer and three times with kinase buffer (30 mM HEPES.NaOH (pH 7.4), 20 mM MgCl2, 2 mM MnCl2, 1 mM dithiothreitol). […] Phosphorylation of SAM68 was detected by autoradiography or by probing Western blots with 4G10. […]

## TNF-related activation-induced cytokine [TRANCE]
[1]; TRANCE 5 μg/ml, 10 min
  activation of PKB in c-Src−/− osteoclasts compared with wild-type: substantially reduced
[1]; osteoclasts, TRANCE stimulation
  time by which PKB activity subsided: ≤ 60 min
[1]; osteoclasts, after 5 minutes, TRANCE 1 μg/ml
  phosphorylated form of PKB upon TRANCE stimulation: increase
[2]; TRANCE 1 μg/ml 5 minutes vs untreated
  TRAF6 and c-Src in the TRANCE-R complex: readily detected
[2]; TRANCE 1 μg/ml 5 minutes, in vitro kinase assay
  PTK activity of the receptor complex towards SAM68: acquired PTK activity
